Measured values from ChEMBL document CHEMBL3867481, “GPR40 agonists for the treatment of type 2 diabetes mellitus: The biological characteristics and the chemical space” (Bioorg Med Chem Lett, 2016).

Columns and labels:
[1] = target: T1, Free fatty acid receptor 1 (Homo sapiens, UniProt O14842); test: Agonist activity at flag-tagged human GPR40 expressed in HEK293 cells assessed as increase in intracellular Ca2+ flux by FLIPR assay; assay type: functional, cell-based
[2] = target: Free fatty acid receptor 1 (Rattus norvegicus, UniProt Q8K3T4); test: Agonist activity at rat GPR40 expressed in HEK293 cells assessed as increase in intracellular Ca2+ flux by Fluo-4-AM dye based FLIPR assay; assay type: functional, cell-based
Rattus norvegicus [3] = test: Antidiabetic activity in po dosed Zucker fa/fa rat assessed as reduction in plasma glucose AUC administered 1 hr prior to glucose challenge measured up to 120 mins post glucose challenge by oral glucose tolerance test; assay type: functional
Rattus norvegicus [4] = test: Antidiabetic activity in po dosed Zucker fa/fa rat assessed as reduction in plasma glucose AUC administered for 21 days measuredon day 21 administered 1 hr prior to glucose challenge measured up to 120 mins post glucose challenge by oral glucose tolerance test; assay type: functional
[5] = target: T1, Free fatty acid receptor 1; test: Agonist activity at human GPR40 expressed in HEK293 cells assessed as increase in intracellular Ca2+ flux by FLIPR assay relative to linoleic acid; assay type: functional, cell-based
[6] = target: T1, Free fatty acid receptor 1; test: Agonist activity at human GPR40 expressed in CHO cells coexpressing NFAT BLA assessed as increase in intracellular Ca2+ flux by fluo-4-AM dye based FLIPR assay; assay type: functional, cell-based
Mus musculus = test: Antidiabetic activity in po dosed albino Balb/c mouse assessed as reduction in plasma glucose AUC administered qd for 3 days measured on day 4 administered 60 mins prior to glucose challenge measured up to 60 mins post glucose challenge by intraperitoneal glucose tolerance test; assay type: functional
[7] = target: T1, Free fatty acid receptor 1; test: Agonist activity at human GPR40 expressed in CHOK cells assessed as increase in intracellular Ca2+ flux by Fluo-4 based assay; assay type: functional, cell-based
[8] = Half life in human; assay type: ADME
[9] = Antidiabetic activity in ZDF rat assessed as induction of glucose-stimulated insulin secretion; assay type: functional
[10] = target: T1, Free fatty acid receptor 1; test: Agonist activity at full length recombinant human GPR40 expressed in CHOK1 cells assessed as intracellular IP3 accumulation by fluorescence assay; assay type: functional, cell-based, CHO-K1
[11] = Half life in iv or po dosed dog; assay type: ADME, organism-based, Canis lupus familiaris; conditions: in vivo
[12] = Half life in iv or po dosed monkey; assay type: ADME, organism-based, Macaca mulatta; conditions: rhesus monkey, in vivo
[13] = Half life in iv or po dosed mouse; assay type: ADME, organism-based; conditions: in vivo
[14] = Oral bioavailability in rat; assay type: ADME, organism-based; conditions: in vivo
[15] = Oral bioavailability in dog; assay type: ADME, organism-based, Canis lupus familiaris; conditions: in vivo
[16] = Half life in iv or po dosed rat; assay type: ADME, organism-based; conditions: in vivo
[17] = Oral bioavailability in mouse; assay type: ADME, organism-based; conditions: in vivo
[18] = Oral bioavailability in monkey; assay type: ADME, organism-based, Macaca mulatta; conditions: rhesus monkey, in vivo

T1 sequence (O14842 whole entry): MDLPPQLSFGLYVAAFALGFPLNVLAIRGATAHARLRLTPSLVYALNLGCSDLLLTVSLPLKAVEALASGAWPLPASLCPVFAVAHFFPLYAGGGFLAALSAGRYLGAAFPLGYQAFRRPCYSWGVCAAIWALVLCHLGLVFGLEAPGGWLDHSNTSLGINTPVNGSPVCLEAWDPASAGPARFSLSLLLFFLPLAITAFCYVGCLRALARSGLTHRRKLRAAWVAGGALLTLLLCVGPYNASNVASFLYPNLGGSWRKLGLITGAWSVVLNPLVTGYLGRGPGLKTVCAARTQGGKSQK
Sequence of Free fatty acid receptor 1 (Rattus norvegicus, UniProt Q8K3T4) (Q8K3T4 whole entry): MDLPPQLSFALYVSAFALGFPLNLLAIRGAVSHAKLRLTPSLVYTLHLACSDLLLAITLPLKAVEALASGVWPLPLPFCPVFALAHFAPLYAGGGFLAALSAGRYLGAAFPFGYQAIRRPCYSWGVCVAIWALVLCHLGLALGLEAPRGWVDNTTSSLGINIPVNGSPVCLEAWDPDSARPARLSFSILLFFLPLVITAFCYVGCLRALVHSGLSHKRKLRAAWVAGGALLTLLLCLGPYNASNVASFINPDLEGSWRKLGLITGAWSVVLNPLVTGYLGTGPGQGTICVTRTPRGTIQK

## COc1ccc(F)c(-c2ccc(Cc3cccc(N4C[C@H](c5cccc(Cl)c5)C[C@@H]4CC(=O)O)c3)c(C)c2)c1
[1]
  EC50: 10 nM

## CC#C[C@@H](CC(=O)O)c1ccc(OCCOc2cccc(Cl)c2)cc1
[2]
  EC50: 10 nM

## CC#C[C@@H](CC(=O)O)c1ccc(OCc2ccc3nc(-c4c(C)cccc4C)nn3c2)cc1
Rattus norvegicus [3]
  ED90: 4.1 mg/kg
Rattus norvegicus [4]
  ED90: 5 mg/kg
[5]
  Emax: 76%

## Cc1cc(OCCC(C)O)cc(C)c1-c1ccc(F)c(COc2cc3c(cn2)[C@@H]2C(C(=O)O)[C@@H]2C3)c1 (stereo not given in full)
[6]
  EC50: 13 nM

## CCOc1ccc(F)c(N2CC[C@@H](Oc3cnc(N4CC(OC)[C@@H](C)[C@@H]4CC(=O)O)cn3)[C@H](C)C2)c1 (stereo not given in full)
[1]
  EC50: 42 nM

## CC#C[C@@H](CC(=O)O)c1ccc(OCc2ccc(CN3CCCc4cccc(OC)c43)s2)cc1
Mus musculus
  ED50: 1 mg/kg

## CO/N=C(\COc1ccc(COc2ccc(C(C#N)CC(=O)O)cc2)cc1)c1ccc(F)cc1 (stereo not given)
[7]
  EC50: < 10 nM

## Cc1cc(OC[C@H]2COC(C)(C)O2)cc(C)c1-c1cccc(COc2ccc(-c3cc(O)no3)cc2)c1C
[6]
  EC50: < 300 nM

## Cc1cc(OCCCS(C)(=O)=O)cc(C)c1-c1cccc(COc2ccc3c(c2)OC[C@H]3CC(=O)O)c1
[8]
  half-life: 28 to 30 h

## O=C(O)CCc1ccc2oc(Nc3c(Cl)c(Cl)cc(Cl)c3Cl)nc2c1
[2]
  EC50: 630 nM

## COc1ccc(C)c(N2CC[C@@H](Oc3ccc(N4N=C(C(F)(F)F)[C@@H](C)[C@@H]4CC(=O)O)cc3)[C@H](C)C2)c1
[1]
  EC50: 71 nM

## CC#C[C@@H](CC(=O)O)c1ccc(NC(=O)C(=O)Nc2cccc(C(C)(C)C)c2)cc1
[2]
  EC50: 0.4 nM
[9]
  MED: 1 mg/kg

## Cc1cc(OCCO)ccc1-c1cccc(COc2ccc(Cn3oc(=O)[nH]c3=O)cc2)c1
[6]
  EC50: 380 nM

## Cc1cc(OCC2CCOC2)cc(C)c1-c1cccc(COc2ccc(C3(CC(=O)O)COC3)cc2)c1 (stereo not given)
[10]
  EC50: < 100 nM

## CC#C[C@@H](CC(=O)O)c1ccc(OCc2cccc(-c3ccc(C(F)(F)F)cc3)c2)cc1
[11]
  half-life: 7.2 to 28 h
[12]
  half-life: 7.2 to 28 h
[13]
  half-life: 7.2 to 28 h
[14]
  bioavailability: 67 to 100%
[15]
  bioavailability: 67 to 100%
[16]
  half-life: 7.2 to 28 h
[17]
  bioavailability: 67 to 100%
[18]
  bioavailability: 67 to 100%
